What was measured:
persian speedwell [1] = assay: Test Example 5: herbicidal effect by foliage application, plastic box (Table 20, symbol R); assay type: in vivo, Persian speedwell (Veronica persica); conditions: foliage application, AAH 320 g/ha, three weeks after application
Outline: (§1)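 Foliar spray test: emulsion formulation diluted in water to a set application rate, sprayed onto 14-day-old plants raised in diluvial soil at 25° C to 30° C under glass. Both herbicidal effect and crop effect rated visually three weeks later.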

Italian ryegrass [2] = assay: Test Example 4: herbicidal effect by soil treatment (Table 19, symbol K); assay type: in vivo, Italian ryegrass (Lolium multiflorum); conditions: AAH 320 g/ha
Outline: (§2)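 Herbicidal effect was rated 3 weeks after treatment, using the scoring criteria of an earlier test. The compound, formulated as an emulsion and diluted in water to a set herbicide amount, had been sprayed uniformly on soil over freshly sown seeds. Growth took place in a greenhouse at 25° C. to 30° C.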

windgrass = assay: Test Example 5: herbicidal effect by foliage application, plastic box (Table 20, symbol L); assay type: in vivo, windgrass (Apera spica-venti); conditions: foliage application, AAH 320 g/ha, three weeks after application
Outline: as §1

lambsquarters [3] = assay: Test Example 4: herbicidal effect by soil treatment (Table 19, symbol O); assay type: in vivo, lambsquarters (Chenopodium album); conditions: AAH 320 g/ha
Outline: as §2

barnyard grass [4] = assay: Test Example 5: herbicidal effect by foliage application, plastic box (Table 20, symbol H); assay type: in vivo, barnyard grass (Echinochloa crus-galli); conditions: foliage application, AAH 320 g/ha, three weeks after application
Outline: as §1

blackgrass [5] = assay: Test Example 4: herbicidal effect by soil treatment (Table 19, symbol J); assay type: in vivo, blackgrass (Alopecurus myosuroides); conditions: AAH 320 g/ha
Outline: as §2

chickweed [6] = assay: Test Example 4: herbicidal effect by soil treatment (Table 19, symbol P); assay type: in vivo, common chickweed (Stellaria media); conditions: AAH 320 g/ha
Outline: as §2

Chinese sprangletop = assay: Test Example 3: herbicidal effect by foliage application, Wagner pot (Table 18, symbol D); assay type: in vivo, chinese sprangletop (Leptochloa chinensis); conditions: 320 g/ha
Outline: (§3)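 Plants were sown in alluvial soil held under 0.1–0.5 cm standing water and grown 14 days in a greenhouse at 25–30 °C. An emulsifiable formulation, water-diluted to the set dose, was then sprayed onto the foliage, and effects were scored three weeks later using previously defined criteria.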

velvetleaf [7] = assay: Test Example 4: herbicidal effect by soil treatment (Table 19, symbol M); assay type: in vivo, velvetleaf (Abutilon theophrasti); conditions: AAH 320 g/ha
Outline: as §2

southern crabgrass [8] = assay: Test Example 5: herbicidal effect by foliage application, plastic box (Table 20, symbol F); assay type: in vivo, southern crabgrass (Digitaria ciliaris); conditions: foliage application, AAH 320 g/ha, three weeks after application
Outline: as §1

wild oat [9] = assay: Test Example 5: herbicidal effect by foliage application, plastic box (Table 20, symbol I); assay type: in vivo, wild oat (Avena fatua); conditions: foliage application, AAH 320 g/ha, three weeks after application
Outline: as §1

persian speedwell [10] = assay: Test Example 4: herbicidal effect by soil treatment (Table 19, symbol R); assay type: in vivo, Persian speedwell (Veronica persica); conditions: AAH 320 g/ha
Description: [Test Example 4] Herbicidal Effect Test by Soil Treatment
Sterilized diluvial soil was placed in a plastic box having a length of 21 cm, a width of 13 cm, and a depth of 7 cm. The seeds of each of southern crabgrass, green foxtail, barnyard grass, wild oat, blackgrass, Italian ryegrass, windgrass, velvetleaf, redroot pigweed, lambsquarters, chickweed, false cleavers, persian speedwell, corn, soybean, rice, wheat, beet, and rapeseed were sowed in a spot-like manner and covered with the soil having a thickness of about 1.5 cm. Subsequently, the emulsion agent of the compound of the present invention prepared according to Formulation Example 2 was diluted with water so as to achieve a predetermined herbicide amount, and the diluted emulsion agent was uniformly applied to the surface of the soil with a small-sized spray. The plastic box was placed in a greenhouse at 25° C. to 30° C. for growth of the plants. Three weeks after the herbicide application, the effect of the herbicide on each plant was evaluated according to the criteria of Test Example 1.

redroot pigweed [11] = assay: Test Example 4: herbicidal effect by soil treatment (Table 19, symbol N); assay type: in vivo, redroot pigweed (Amaranthus retroflexus); conditions: AAH 320 g/ha
Outline: as §2

barnyard grass [12] = assay: Test Example 4: herbicidal effect by soil treatment (Table 19, symbol H); assay type: in vivo, barnyard grass (Echinochloa crus-galli); conditions: AAH 320 g/ha
Outline: as §2

southern crabgrass [13] = assay: Test Example 4: herbicidal effect by soil treatment (Table 19, symbol F); assay type: in vivo, southern crabgrass (Digitaria ciliaris); conditions: AAH 320 g/ha
Outline: as §2

blackgrass [14] = assay: Test Example 5: herbicidal effect by foliage application, plastic box (Table 20, symbol J); assay type: in vivo, blackgrass (Alopecurus myosuroides); conditions: foliage application, AAH 320 g/ha, three weeks after application
Outline: as §1

green foxtail [15] = assay: Test Example 5: herbicidal effect by foliage application, plastic box (Table 20, symbol G); assay type: in vivo, green foxtail (Setaria viridis); conditions: foliage application, AAH 320 g/ha, three weeks after application
Outline: as §1

lambsquarters [16] = assay: Test Example 5: herbicidal effect by foliage application, plastic box (Table 20, symbol O); assay type: in vivo, lambsquarters (Chenopodium album); conditions: foliage application, AAH 320 g/ha, three weeks after application
Outline: as §1

redroot pigweed [17] = assay: Test Example 5: herbicidal effect by foliage application, plastic box (Table 20, symbol N); assay type: in vivo, redroot pigweed (Amaranthus retroflexus); conditions: foliage application, AAH 320 g/ha, three weeks after application
Outline: as §1

rice flat sedge = assay: Test Example 3: herbicidal effect by foliage application, Wagner pot (Table 18, symbol E); assay type: in vivo, rice flat sedge (Cyperus iria); conditions: 320 g/ha
Outline: as §3

chickweed [18] = assay: Test Example 5: herbicidal effect by foliage application, plastic box (Table 20, symbol P); assay type: in vivo, common chickweed (Stellaria media); conditions: foliage application, AAH 320 g/ha, three weeks after application
Outline: as §1

barnyard grass [19] = assay: Test Example 3: herbicidal effect by foliage application, Wagner pot (Table 18, symbol H); assay type: in vivo, barnyard grass (Echinochloa crus-galli); conditions: 320 g/ha
Outline: as §3

Italian ryegrass [20] = assay: Test Example 5: herbicidal effect by foliage application, plastic box (Table 20, symbol K); assay type: in vivo, Italian ryegrass (Lolium multiflorum); conditions: foliage application, AAH 320 g/ha, three weeks after application
Outline: as §1

velvetleaf [21] = assay: Test Example 5: herbicidal effect by foliage application, plastic box (Table 20, symbol M); assay type: in vivo, velvetleaf (Abutilon theophrasti); conditions: foliage application, AAH 320 g/ha, three weeks after application
Outline: as §1

wild oat [22] = assay: Test Example 4: herbicidal effect by soil treatment (Table 19, symbol I); assay type: in vivo, wild oat (Avena fatua); conditions: AAH 320 g/ha
Outline: as §2

green foxtail [23] = assay: Test Example 4: herbicidal effect by soil treatment (Table 19, symbol G); assay type: in vivo, green foxtail (Setaria viridis); conditions: AAH 320 g/ha
Outline: as §2

COc1ccc(Cl)cc1-c1sc2ccccc2c1-c1c(O)c(OC)nn(C)c1=O [1-178]
R: persian speedwell, herbicidal effect (persian speedwell [1]): 4 (Herbicidal rate of 70% or more and less than 90%) | K: Italian ryegrass, herbicidal effect rating (Italian ryegrass [2]): 0 (Herbicidal rate of 5% or less (almost no effect)) | L: windgrass, herbicidal effect (windgrass): 4 (Herbicidal rate of 70% or more and less than 90%) | O: lambsquarters, herbicidal effect rating (lambsquarters [3]): 0 (Herbicidal rate of 5% or less (almost no effect)) | H: barnyard grass, herbicidal effect (barnyard grass [4]): 4 (Herbicidal rate of 70% or more and less than 90%) | J: blackgrass, herbicidal effect rating (blackgrass [5]): 1 (Herbicidal rate of 5% or more and less than 20%) | P: chickweed, herbicidal effect rating (chickweed [6]): 4 (Herbicidal rate of 70% or more and less than 90%) | herbicidal effect on D (Chinese sprangletop), rating 0-5 (Chinese sprangletop): 0 (Herbicidal rate of 5% or less (almost no effect)) | M: velvetleaf, herbicidal effect rating (velvetleaf [7]): 0 (Herbicidal rate of 5% or less (almost no effect)) | F: southern crabgrass, herbicidal effect (southern crabgrass [8]): 3 (Herbicidal rate of 40% or more and less than 70%) | I: wild oat, herbicidal effect (wild oat [9]): 4 (Herbicidal rate of 70% or more and less than 90%) | R: persian speedwell, herbicidal effect rating (persian speedwell [10]): 4 (Herbicidal rate of 70% or more and less than 90%) | N: redroot pigweed, herbicidal effect rating (redroot pigweed [11]): 4 (Herbicidal rate of 70% or more and less than 90%) | H: barnyard grass, herbicidal effect rating (barnyard grass [12]): 0 (Herbicidal rate of 5% or less (almost no effect)) | F: southern crabgrass, herbicidal effect rating (southern crabgrass [13]): 0 (Herbicidal rate of 5% or less (almost no effect)) | J: blackgrass, herbicidal effect (blackgrass [14]): 1 (Herbicidal rate of 5% or more and less than 20%) | G: green foxtail, herbicidal effect (green foxtail [15]): 4 (Herbicidal rate of 70% or more and less than 90%) | O: lambsquarters, herbicidal effect (lambsquarters [16]): 4 (Herbicidal rate of 70% or more and less than 90%) | N: redroot pigweed, herbicidal effect (redroot pigweed [17]): 5 (Herbicidal rate of 90% or more (almost completely withered)) | herbicidal effect on E (rice flat sedge), rating 0-5 (rice flat sedge): 5 (Herbicidal rate of 90% or more (almost completely withered)) | P: chickweed, herbicidal effect (chickweed [18]): 5 (Herbicidal rate of 90% or more (almost completely withered)) | herbicidal effect on H (barnyard grass), rating 0-5 (barnyard grass [19]): 4 (Herbicidal rate of 70% or more and less than 90%) | K: Italian ryegrass, herbicidal effect (Italian ryegrass [20]): 0 (Herbicidal rate of 5% or less (almost no effect)) | M: velvetleaf, herbicidal effect (velvetleaf [21]): 3 (Herbicidal rate of 40% or more and less than 70%) | I: wild oat, herbicidal effect rating (wild oat [22]): 0 (Herbicidal rate of 5% or less (almost no effect)) | G: green foxtail, herbicidal effect rating (green foxtail [23]): 0 (Herbicidal rate of 5% or less (almost no effect))
